Laboratory results as given in PubChem BioAssay (NCI).
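Each compound was tested at five concentrations against cells in 96-well plates for 48 hours. At the TGI there is no net growth.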

Columns and labels:
Assay in all cases: NCI tumour cell line growth inhibition, 48 h
M14 melanoma = test system: M14 melanoma
SNB-78 CNS = test system: SNB-78 CNS
MDA-N = test system: MDA-N
DMS 114 small cell lung = test system: DMS 114 small cell lung
KM20L2 colon = test system: KM20L2 colon
DMS 273 small cell lung = test system: DMS 273 small cell lung
HOP-18 NSCLC = test system: HOP-18 NSCLC
M19-MEL melanoma = test system: M19-MEL melanoma
DLD-1 colon = test system: DLD-1 colon
LXFL 529 NSCLC = test system: LXFL 529 NSCLC
XF 498 CNS = test system: XF 498 CNS
RXF-631 renal = test system: RXF-631 renal
P388/ADR leukemia = test system: P388/ADR leukemia
SN12K1 renal = test system: SN12K1 renal
P388 leukemia = test system: P388 leukemia

With `Cc1c2cc[n+](C)cc2c(C)c2c1sc1ccccc12` the TGI (M14 melanoma) was 14.2 µM, the TGI (SNB-78 CNS) was 8.41 µM and the TGI (MDA-N) was 11.3 µM. The TGI (DMS 114 small cell lung) was 2.57 µM, the TGI (KM20L2 colon) was 31.8 µM and the TGI (DMS 273 small cell lung) was 7 µM. It also gave a TGI (HOP-18 NSCLC) of 36.2 µM, a TGI (M19-MEL melanoma) of 4.04 µM and a TGI (DLD-1 colon) of 51.2 µM. It also gave a TGI (LXFL 529 NSCLC) of 5.13 µM, a TGI (XF 498 CNS) of 2.69 µM and a TGI (RXF-631 renal) of 14.4 µM.

Compound `O=C[C@@H](CO)O[C@H](C=O)c1c[nH]c(=O)[nH]c1=O` has a TGI (M14 melanoma) of 527 µM, a TGI (SNB-78 CNS) of 890 µM and a TGI (MDA-N) of 307 µM. For the same compound, the TGI (P388/ADR leukemia) was 373 µM, the TGI (DMS 114 small cell lung) was 232 µM and the TGI (KM20L2 colon) was 310 µM. It also gave a TGI (SN12K1 renal) of 183 µM, a TGI (P388 leukemia) of 307 µM and a TGI (DMS 273 small cell lung) of 265 µM. For the same compound, the TGI (HOP-18 NSCLC) was 267 µM, the TGI (M19-MEL melanoma) was 406 µM and the TGI (DLD-1 colon) was 493 µM. For the same compound, the TGI (XF 498 CNS) was 86.7 µM.

`NC1=NC(=O)/C(=C/c2ccccc2[N+](=O)[O-])C(N)=N1` was tested, and the TGI (M14 melanoma) was greater than 100 µM, the TGI (SNB-78 CNS) was greater than 100 µM and the TGI (DMS 114 small cell lung) was greater than 100 µM. The TGI (KM20L2 colon) was greater than 100 µM, the TGI (DMS 273 small cell lung) was greater than 100 µM and the TGI (HOP-18 NSCLC) was greater than 100 µM. For the same compound, the TGI (M19-MEL melanoma) was greater than 100 µM, the TGI (DLD-1 colon) was greater than 100 µM and the TGI (LXFL 529 NSCLC) was greater than 100 µM. The TGI (XF 498 CNS) was greater than 100 µM and the TGI (RXF-631 renal) was greater than 100 µM.

Compound `Cc1cn(Cc2ccccc2CCO)c(=S)[nH]c1=O` has a TGI (M14 melanoma) greater than 100 µM, a TGI (DMS 114 small cell lung) greater than 100 µM and a TGI (KM20L2 colon) greater than 100 µM. The TGI (DMS 273 small cell lung) was greater than 100 µM, the TGI (HOP-18 NSCLC) was greater than 100 µM and the TGI (M19-MEL melanoma) was greater than 100 µM. For the same compound, the TGI (LXFL 529 NSCLC) was greater than 100 µM, the TGI (XF 498 CNS) was greater than 100 µM and the TGI (RXF-631 renal) was greater than 100 µM.

`COc1cc(/C=C/c2ccncc2)cc(OC)c1OC` showed a TGI (M14 melanoma) greater than 100 µM, a TGI (SNB-78 CNS) greater than 100 µM and a TGI (DMS 114 small cell lung) greater than 100 µM. The TGI (KM20L2 colon) was greater than 100 µM, the TGI (DMS 273 small cell lung) was greater than 100 µM and the TGI (HOP-18 NSCLC) was greater than 100 µM. The TGI (DLD-1 colon) was greater than 100 µM, the TGI (LXFL 529 NSCLC) was greater than 100 µM and the TGI (XF 498 CNS) was 91.3 µM. It also gave a TGI (RXF-631 renal) greater than 100 µM.

Compound `COc1ccc(C2CC(=O)c3c(O)cc(O)cc3O2)cc1O` (stereo unspecified) has a TGI (M14 melanoma) greater than 100 µM, a TGI (SNB-78 CNS) greater than 100 µM and a TGI (DMS 114 small cell lung) greater than 100 µM. For the same compound, the TGI (KM20L2 colon) was greater than 100 µM, the TGI (DMS 273 small cell lung) was greater than 100 µM and the TGI (M19-MEL melanoma) was greater than 100 µM. For the same compound, the TGI (DLD-1 colon) was greater than 100 µM, the TGI (LXFL 529 NSCLC) was greater than 100 µM and the TGI (XF 498 CNS) was greater than 100 µM. The TGI (RXF-631 renal) was greater than 100 µM.

Work on `Cc1ccc(S(=O)(=O)N[C@H](C(=O)O)c2ccccc2)cc1` yielded a TGI (M14 melanoma) greater than 100 µM, a TGI (KM20L2 colon) greater than 100 µM and a TGI (DMS 273 small cell lung) greater than 100 µM. The TGI (HOP-18 NSCLC) was greater than 100 µM, the TGI (M19-MEL melanoma) was greater than 100 µM and the TGI (DLD-1 colon) was greater than 100 µM. It also gave a TGI (LXFL 529 NSCLC) greater than 100 µM, a TGI (XF 498 CNS) greater than 100 µM and a TGI (RXF-631 renal) greater than 100 µM.

With `CN(C)c1ccc2c(=O)c3ccccc3oc2n1` the TGI (M14 melanoma) was greater than 100 µM, the TGI (SNB-78 CNS) was greater than 100 µM and the TGI (DMS 114 small cell lung) was greater than 100 µM. It also gave a TGI (KM20L2 colon) greater than 100 µM, a TGI (DMS 273 small cell lung) greater than 100 µM and a TGI (M19-MEL melanoma) greater than 100 µM. For the same compound, the TGI (DLD-1 colon) was greater than 100 µM, the TGI (LXFL 529 NSCLC) was greater than 100 µM and the TGI (XF 498 CNS) was greater than 100 µM. The TGI (RXF-631 renal) was greater than 100 µM.

With `COc1ccc(C(=O)c2cc(OC)c(OC)c(OC)c2)cc1` the TGI (M14 melanoma) was greater than 100 µM, the TGI (MDA-N) was 0.0452 µM and the TGI (DMS 114 small cell lung) was greater than 100 µM. The TGI (DMS 273 small cell lung) was greater than 100 µM, the TGI (HOP-18 NSCLC) was greater than 100 µM and the TGI (M19-MEL melanoma) was greater than 100 µM. It also gave a TGI (DLD-1 colon) greater than 100 µM, a TGI (LXFL 529 NSCLC) greater than 100 µM and a TGI (XF 498 CNS) greater than 27.7 µM. The TGI (RXF-631 renal) was greater than 100 µM.

Compound `O=C1[C@@H]2C(c3ccccc3Br)=NO[C@@H]2C(=O)N1c1ccc(Cc2ccc(N3C(=O)[C@H]4C(c5ccccc5Br)=NO[C@H]4C3=O)cc2)cc1` has a TGI (M14 melanoma) greater than 100 µM, a TGI (SNB-78 CNS) greater than 100 µM and a TGI (DMS 114 small cell lung) greater than 100 µM. It also gave a TGI (KM20L2 colon) greater than 100 µM, a TGI (DMS 273 small cell lung) greater than 100 µM and a TGI (HOP-18 NSCLC) greater than 100 µM. It also gave a TGI (M19-MEL melanoma) greater than 100 µM, a TGI (DLD-1 colon) greater than 100 µM and a TGI (LXFL 529 NSCLC) greater than 100 µM. It also gave a TGI (XF 498 CNS) greater than 100 µM and a TGI (RXF-631 renal) greater than 100 µM.

Work on `COc1c(C=O)c2c(c(OC)c1OC)-c1ccc(OC)c(=O)cc1[C@@H](NC(C)=O)CC2` yielded a TGI (M14 melanoma) greater than 25.2 µM, a TGI (SNB-78 CNS) greater than 67.6 µM and a TGI (DMS 114 small cell lung) of 0.0364 µM. It also gave a TGI (KM20L2 colon) of 0.218 µM, a TGI (DMS 273 small cell lung) greater than 100 µM and a TGI (HOP-18 NSCLC) greater than 100 µM. For the same compound, the TGI (M19-MEL melanoma) was greater than 100 µM, the TGI (DLD-1 colon) was greater than 100 µM and the TGI (LXFL 529 NSCLC) was greater than 100 µM. For the same compound, the TGI (XF 498 CNS) was 37 µM and the TGI (RXF-631 renal) was 18.2 µM.
